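Each compound was tested at five concentrations against cells in 96-well plates for 48 hours. GI50 = concentration required for 50% inhibition of growth.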 The source made the active and inactive calls. No stated cut-off is given here; in the data, active = GI50 up to about 1.1 µM and inactive = higher.
What was measured:
Assay in all cases: growth of human tumour cells (NCI), 48 h
HOP-62 = system: HOP-62
MDA-MB-435 = system: MDA-MB-435
SR = system: SR
SF-268 = system: SF-268
UACC-257 = system: UACC-257
RXF 393 = system: RXF 393
HCC 2998 = system: HCC 2998
KM12 = system: KM12
Malme-3M = system: Malme-3M
HL-60 = system: HL-60
OVCAR-3 = system: OVCAR-3
NCI-H460 = system: NCI-H460
Hs-578T = system: Hs-578T
UACC-62 = system: UACC-62
SNB-75 = system: SNB-75
SF-539 = system: SF-539
EKVX = system: EKVX
ACHN = system: ACHN
CCRF-CEM = system: CCRF-CEM
MDA-N = system: MDA-N

Compound: COc1ccc2[nH]c(Cl)c(/C=C3/C(=O)Nc4cc(C)c(OC)cc43)c2c1
- GI50 (HOP-62): 5.48 µM (inactive)
- GI50 (MDA-MB-435): 1.23 µM (inactive)
- GI50 (SR): 3.08 µM (inactive)
- GI50 (SF-268): 5.75 µM (inactive)
- GI50 (UACC-257): 11.4 µM (inactive)
- GI50 (RXF 393): 11.1 µM (inactive)
- GI50 (HCC 2998): 4.89 µM (inactive)
- GI50 (KM12): 3.35 µM (inactive)
- GI50 (Malme-3M): 5.82 µM (inactive)
- GI50 (HL-60): 1.91 µM (inactive)
- GI50 (OVCAR-3): 2.66 µM (inactive)
- GI50 (NCI-H460): 3.36 µM (inactive)
- GI50 (Hs-578T): 3.81 µM (inactive)
- GI50 (UACC-62): 3.55 µM (inactive)
- GI50 (SNB-75): 10.8 µM (inactive)
- GI50 (SF-539): 0.723 µM (active)
- GI50 (EKVX): 9.53 µM (inactive)
- GI50 (ACHN): 9.53 µM (inactive)
- GI50 (CCRF-CEM): 3.43 µM (inactive)
- GI50 (MDA-N): 1.58 µM (inactive)

Reference: ChEMBL document CHEMBL1201862, “PubChem BioAssay data set” (2004)
